According to US12544372B2, “Methods of treating rheumatoid arthritis, chronic spontaneous urticaria, and systemic lupus erythematosis using an inhibitor of Bruton's tyrosine kinase” (Genentech, Inc., priority 2019, dated 2026):
Marks after values point to notes of the source that are not given here.

Key:
Format in all cases: in vivo, human
[1] = tested on: IgG anti-FcERI autoantibodies; assay: CSU study: serum IgG anti-FcERI autoantibodies (immunoassay); conditions: Cohorts 1 and 2, serum, week 0 to 8
Protocol: Some patient samples were also evaluated specifically for IgG anti-FcERI autoantibodies, and the level of those autoantibodies over time in fenebrutinib-administered patients compared to placebo-administered patients is shown in FIG. 37. Serum samples were collected at 0 and 8 weeks from patients receiving fenebrutinib (left) versus placebo (right), with samples sizes for each group shown. Prior to direct FcERI immunoassay, samples were split and pre-incubated with equimolar concentrations of rhFcERI or an unrelated control protein. Reactivity levels were determined relative to a mouse monoclonal antibody standard. IgG anti-FcERI was defined as the difference in reactivity between the split samples, and is shown in relative units (RU). The bold lines without markers represent the average of patients who were anti-FcERI positive at baseline. The dotted line represents the mean+3 standard deviations of healthy volunteer samples. Some sample lines for IgG anti-FcERI negative patients overlap at the lower end of the assay range. […] Without wishing to be bound by any theory, it is thought that anti-FcERI may be a driver of positive CU index test results, and are associated with refractory CSU.

[2] = tested on: ESR; assay: RA study: ESR versus baseline
From the text: As used herein, “ESR” refers to “Erythrocyte Sedimentation Rate”, which is a test that indirectly measures the degree of inflammation in the body by measuring how quickly red blood cells settle at the bottom of a test tube containing a sample of a patient's blood. See www.healthline.com/health/esr (last visited Aug. 7, 2018). A positive ESR may be determined using the Westergren method according to specifications by the International Council for Standardization in Haematology, or by automated methods (e.g., TEST1 from Alifax). See https://icsh(dot)org/guidelines; Lou, J. M. et al., Int. Jnl. Lab. Hem. 2011, 33:125-132.
Disease Activity Score 28. The DAS 28-4 (CRP) and the DAS 28-4 (ESR) are calculated as follows. Assessments: (i) Tender joint count of 28 joints (TJC28), square-root transformed; (ii) Swollen joint count of 28 joints (SJC28), square-root transformed; (iii) Acute-phase reactant (erythrocyte sedimentation rate [ESR mm/hr] or high sensitivity C-reactive protein [hsCRP mg/L]), log transformed; (iv) Patient's global assessment of disease activity on visual analog scale (0-100 mm).

[3] = tested on: CD19+ B cells; assay: SLE study biomarker: CD19+ B cells
Protocol: (§1) The following biomarkers were explored according to the biomarker objectives provided above in the Study Objectives. In Table 13, biomarkers are measured at baseline and subsequent timepoints during and after treatment. One set of biomarkers evaluated is the plasmablast signature. Plasmablasts are rapidly dividing, short-lived antibody secreting cells. While they represent a small proportion of B cells in the blood, they are responsible for a majority of antibody transcripts found in whole blood mRNA. The plasmablast signature comprises the biomarkers IgJ, Mzbl, and Txndc5. The gene expression of IgJ, Mzbl, and Txndc5 may be measured, for example, a polypeptide expression by evaluating the level of mRNA for said gene in a patient's blood relative to a reference level.

[4] = tested on: CD3+ T cells; assay: RA study: CD3+ T cells (flow cytometry); conditions: cohort 1 and cohort 2, week 1
Protocol: Biomarkers were evaluated in serum or plasma samples at baseline and weeks 1, 4, and 12 in patients with available samples (cohort 1: n=438; cohort 2: n=86). The biomarkers evaluated in this assessment were chemokine [C-C motif] ligand 4 (CCL4), IL-6, and TNF-like cytokine 1A (TL1A). Total IgM, IgG, rheumatoid factor IgM autoantibody (RF), CCL4, TL1A, IL-6, and anti-CCP autoantibody (ACPA IgG) levels were analyzed with immunoassays. CD19^+ B cells and CD3^+ T cells were measured by flow cytometry. The proportion of patients achieving an ACR50 response at week 12 and the change in DAS28 score by week 12 were assessed relative to seropositivity (RF and/or ACPA positive at baseline) or baseline levels of RF in both cohorts. To select which biomarkers to evaluate in this trial, BTK-dependent myeloid biomarkers were identified using peripheral blood CD14^+ monocytes stimulated with immune-complexes in the presence or absence of a BTK inhibitor. In brief, the expression levels of genes in human monocytes were assayed under conditions of no stimulation; with human serum albumin immune complex stimulation; with stimulation and a low concentration of a BTK inhibitor with similar characteristics to fenebrutinib; or with stimulation and a high concentration of the BTK inhibitor. […] Genes annotated with cytokine activity were selected. The color bar represents normalized gene expression.

[5] = tested on: C3; assay: SLE study biomarker: C3
Protocol: as §1

C[C@H]1CN(C2COC2)CCN1c1ccc(Nc2cc(-c3ccnc(N4CCn5c(cc6c5CC(C)(C)C6)C4=O)c3CO)cn(C)c2=O)nc1 [fenebrutinib, (S)-2-(3′-(hydroxymethyl)-1-methyl-5-((5-(2-methyl-4-(oxetan-3-yl)piperazin-1-yl)pyridin-2-yl)amino)-6-oxo-1,6-dihydro-[3,4′-bipyridin]-2′-yl)-7,7-dimethyl-2,3,4,6,7,8-hexahydro-1H-cyclopenta[4,5]pyrrolo[1,2-a]pyrazin-1-one]
IgG anti-FcERI autoantibodies [1]: significant reduction
ESR, % of BL ESR ([2]; Cohort 1, 200 mg BID, Week 12): 63%
ESR levels ([2]; Cohort 1, Weeks 2, 4 and 8): reduced ESR levels
ESR levels ([2]; Cohort 2, Week 8 and Week 12): reduced ESR levels
CD19+ B cells, Median Change from Baseline at Week 48 ([3]; 150 mg QD): −57.0* cells/μl
CD19+ B cells, Median Change from Baseline at Week 48 ([3]; 200 mg BID): −57.5* cells/μl
CD3+ T cells relative to placebo [4]: +10-15%
C3, Median Change from Baseline at Week 48 ([5]; 150 mg QD): +0.01 g/L
C3, Median Change from Baseline at Week 48 ([5]; 200 mg BID): -0.01 g/L
